Reference: patent US10858335B2 (Rigel Pharmaceuticals, Inc., priority 2014, dated 2020)

What follows are compounds tested on GDF8 signaling (p-SMAD-3 (Ser423/425)) (assay: AlphaScreen SureFire SMAD3 (p-Ser423/425) assay, GDF8-stimulated cells (GDF pSMAD)). Details: Mus musculus, MPC-11, GDF8-stimulated pSMAD3, MPC11; tested as the salt form given; read-out: GDF pSMAD (MPC11) (μM), inhibition of GDF8 signaling.
Format: cell-based

Q: Which IC50 does the source give for Nc1ncnc2ccc(-c3cccnc3-c3cc(O)c(F)cc3Cl)cc12 [compound 1020, 5-(3-(4-aminoquinazolin-6-yl)pyridin-2-yl)-4-chloro-2-fluorophenol] here?
A: 4.77 µM

Q: How did the IC50 turn out when Cc1cc(-c2ncccc2-c2cc(C)c3ncnc(N)c3c2)ccc1F [compound 986, 6-(2-(4-fluoro-3-methylphenyl)pyridin-3-yl)-8-methylquinazolin-4-amine] was run?
A: 0.956 µM

Same assay, conditions: Mus musculus, MPC-11, MPC11; GDF8-stimulated; p-SMAD3 AlphaScreen; read-out: GDF pSMAD (MPC11) (inhibition of GDF8 signaling)

Q: Which IC50 does the source give for COc1cnc(-c2cccc(C(F)(F)F)c2)c(-c2ccn3ncnc3c2)c1 [compound 859] here?
A: 3.7 µM

Q: How did the IC50 turn out when Cc1cc(-c2ncc(NCc3cccc(N4CCOCC4)c3)cc2-c2ccc3ncsc3c2)ccc1F [compound 354, 5-(Benzo[d]thiazol-6-yl)-6-(4-fluoro-3-methylphenyl)-N-(3-morpholinobenzyl)pyridin-3-amine] was run?
A: 1.27 µM

Q: For Cc1cc(-c2ncccc2-c2ccc3ncnc(OCCN4CCCC4)c3c2)ccc1F [compound 443, 6-(2-(4-Fluoro-3-methylphenyl)pyridin-3-yl)-4-(2-(pyrrolidin-1-yl)ethoxy)quinazoline], which IC50 is on record?
A: 0.429 µM

Q: Clc1cccc(-c2ncccc2-c2ccc3ncnn3c2)c1 [compound 746, 6-(2-(3-Chlorophenyl)pyridin-3-yl)-[1,2,4]triazolo[1,5-a]pyridine] was tested. Which IC50 did it give?
A: 0.566 µM

Q: CC(=O)Nc1cccc(-c2ncccc2-c2ccc3ncn(C)c(=O)c3c2)c1 [compound 380, N-(3-(3-(3-Methyl-4-oxo-3,4-dihydroquinazolin-6-yl)pyridin-2-yl)phenyl)acetamide] was tested. Which IC50 did it give?
A: 18.5 µM

Q: How did the IC50 turn out when Cc1c(-c2cccnc2-c2cc(Cl)ccc2F)ccc2ncnn12 [compound 812, 6-(2-(5-Chloro-2-fluorophenyl)pyridin-3-yl)-5-methyl-[1,2,4]triazolo[1,5-a]pyridine] was run?
A: 2.14 µM

Q: Clc1cccc(-c2ncccc2-c2ccn3ncnc3c2)c1 [compound 734, 7-(2-(3-Chlorophenyl)pyridin-3-yl)-[1,2,4]triazolo[1,5-a]pyridine] was tested. Which IC50 did it give?
A: 0.694 µM

Q: For Cc1cccc(-c2ncccc2-c2ccn3nccc3n2)c1 [compound 911, 5-(2-(m-Tolyl)pyridin-3-yl)pyrazolo[1,5-a]pyrimidine], which IC50 is on record?
A: 0.0939 µM

Q: With Cc1cc(-c2ncccc2-c2ccnc(Nc3cccc(N4CCOCC4)c3)n2)ccc1F [compound 905, 4-(2-(4-Fluoro-3-methylphenyl)pyridin-3-yl)-N-(3-morpholinophenyl)pyrimidin-2-amine] as the compound, how does the IC50 read?
A: 1.49 µM

Q: Which IC50 does the source give for O=c1[nH]cnc2ccc(-c3cccnc3-c3cc(Cl)ccc3F)cc12 [compound 822, 6-(2-(5-Chloro-2-fluorophenyl)pyridin-3-yl)quinazolin-4(3H)-one] here?
A: 0.127 µM

Q: Which IC50 does the source give for Cc1cnc(-c2cc(Cl)c(F)cc2F)c(-c2ccn3ncnc3c2)c1 [compound 865, 7-(2-(5-Chloro-2,4-difluorophenyl)-5-methylpyridin-3-yl)-[l 1,2,4]triazolo[1,5-a]pyridine] here?
A: 0.608 µM

Q: Cc1cc(-c2ncccc2-c2ccc3ncc(C(C)O)n3c2)ccc1F (racemic) [compound 598, rac-1-(6-(2-(4-Fluoro-3-methylphenyl)pyridin-3-yl)imidazo[1,2-a]pyridin-3-yl)ethan-1-ol] was tested. Which IC50 did it give?
A: 2.05 µM

Q: For Cc1cc(-c2ncccc2-c2ccc3ncc(=O)n(C)c3c2)ccc1F [compound 888, 7-(2-(4-Fluoro-3-methylphenyl)pyridin-3-yl)-1-methylquinoxalin-2(1H)-one], which IC50 is on record?
A: 4.05 µM

Q: Cc1cc(-c2ncccc2-c2ccn3c(C(=O)NCCCN4CCN(C)CC4)ncc3c2)ccc1F [compound 264, 7-(2-(4-Fluoro-3-methylphenyl)pyridin-3-yl)-N-(3-(4-methylpiperazin-1-yl)propyl)imidazo[1,5-a]pyridine-3-carboxamide] was tested. Which IC50 did it give?
A: 9.15 µM

Q: For Cc1cc(-c2ncccc2-c2ccc3ncc(C(=O)NCC(O)CO)n3c2)ccc1F (stereo not shown) [compound 613, N-(2,3-Dihydroxypropyl)-6-(2-(4-fluoro-3-methylphenyl)pyridin-3-yl)imidazo[1,2-a]pyridine-3-carboxamide], which IC50 is on record?
A: 0.624 µM

Q: Which IC50 does the source give for Cc1c(-c2cccnc2-c2cc(Cl)c(F)cc2F)ccc2ncnn12 [compound 813, 6-(2-(5-Chloro-2,4-difluorophenyl)pyridin-3-yl)-5-methyl-[1,2,4]triazolo[1,5-a]pyridine] here?
A: 2.43 µM

Q: Which IC50 does the source give for Cn1c(=O)cnc2ccc(-c3cccnc3-c3cc(Cl)ccc3F)cc21 [compound 889, 7-(2-(5-Chloro-2-fluorophenyl)pyridin-3-yl)-1-methylquinoxalin-2(1H)-one] here?
A: 1.52 µM

Q: With CC(=O)Nc1cnc(-c2cccc(C3CC3)c2)c(-c2ccc3[nH]ncc3c2)c1 [Compound 25, N-(6-(3-Cyclopropylphenyl)-5-(1H-indazol-5-yl)pyridin-3-yl)acetamide] as the compound, how does the IC50 read?
A: 0.612 µM

Q: With Cc1ccc(CNc2cnc(-c3ccc(F)c(C)c3)c(-c3ccc4ncsc4c3)c2)cn1 [compound 334, 5-(Benzo[d]thiazol-6-yl)-6-(4-fluoro-3-methylphenyl)-N-((6-methylpyridin-3-yl)methyl)pyridin-3-amine] as the compound, how does the IC50 read?
A: 0.373 µM

Q: For CCOc1cnc(-c2ccc(F)cc2)c(-c2ccc3[nH]ncc3c2)c1 [Compound 6, 5-(5-Ethoxy-2-(4-fluorophenyl)pyridin-3-yl)-1H-indazole], which IC50 is on record?
A: 18.7 µM

Q: Which IC50 does the source give for Nc1ccnc2ccc(-c3cccnc3-c3ccc(F)c(Cl)c3)cc12 [compound 837, 6-(2-(3-Chloro-4-fluorophenyl)pyridin-3-yl)quinolin-4-amine] here?
A: 4.86 µM

Q: Cc1cc(-c2ncccc2-c2ccc3ncnc(OCCCN4CCN(C)CC4)c3c2)ccc1F [compound 434, 6-(2-(4-Fluoro-3-methylphenyl)pyridin-3-yl)-4-(3-(4-methylpiperazin-1-yl)propoxy)quinazoline] was tested. Which IC50 did it give?
A: 1.49 µM

Q: Which IC50 does the source give for Cc1cc(-c2ncccc2-c2ccc3ncc(C(=O)N[C@@H]4CCCC[C@H]4N)n3c2)ccc1F [compound 679, N-((1R,2R)-2-Aminocyclohexyl)-6-(2-(4-fluoro-3-methylphenyl)pyridin-3-yl)imidazo[1,2-a]pyridine-3-carboxamide] here?
A: 10.8 µM

Q: Cc1cc(-c2ncc(NC3CCCCC3O)cc2-c2ccc3nccnc3c2)ccc1F (stereo not shown) [compound 243, 2-((6-(4-Fluoro-3-methylphenyl)-5-(quinoxalin-6-yl)pyridin-3-yl)amino)cyclohexan-1-ol] was tested. Which IC50 did it give?
A: 11.9 µM

Q: Fc1cc(-c2ncccc2-c2ccn3ncnc3c2)cc(F)c1F [compound 875, 7-(2-(3,4,5-Trifluorophenyl)pyridin-3-yl)-[1,2,4]triazolo[1,5-a]pyridine] was tested. Which IC50 did it give?
A: 12.4 µM

Q: Which IC50 does the source give for N#Cc1cccc(-c2ncccc2-c2cnc3cn[nH]c3c2)c1 [Compound 141, 3-(3-(1H-Pyrazolo[4,3-b]pyridin-6-yl)pyridin-2-yl)benzonitrile] here?
A: 18.6 µM

Q: Which IC50 does the source give for CN(C)CCCOc1ncnc2ccc(-c3cccnc3-c3ccc(F)c(Cl)c3)cc12 [compound 435, 3-((6-(2-(3-Chloro-4-fluorophenyl)pyridin-3-yl)quinazolin-4-yl)oxy)-N,N-dimethylpropan-1-amine] here?
A: 0.608 µM

Q: For Fc1cccc(-c2ncccc2-c2ccc3ncsc3c2)c1F [compound 662, 6-(2-(2,3-Difluorophenyl)pyridin-3-yl)benzo[d]thiazole], which IC50 is on record?
A: 9.64 µM

Q: With Nc1nccc2ccc(-c3cccnc3-c3ccc(F)c(Cl)c3)cc12 [compound 297, 7-(2-(3-Chloro-4-fluorophenyl)pyridin-3-yl)isoquinolin-1-amine] as the compound, how does the IC50 read?
A: 2.26 µM

Q: With Fc1cc(Cl)cc(-c2ncccc2-c2ccc3ncnn3c2)c1 [compound 770, 6-(2-(3-Chloro-5-fluorophenyl)pyridin-3-yl)-[1,2,4]triazolo[1,5-a]pyridine] as the compound, how does the IC50 read?
A: 1.31 µM

Q: Cc1cc(-c2ncccc2-c2ccc3ncc(C(=O)N4CCOCC4)n3c2)ccc1F [compound 580, (6-(2-(4-Fluoro-3-methylphenyl)pyridin-3-yl)imidazo[1,2-a]pyridin-3-yl)(morpholino)methanone] was tested. Which IC50 did it give?
A: 8.46 µM

Q: With Cc1c(F)cccc1-c1ncccc1-c1ccc2ncnc(N)c2c1 [compound 468, 6-(2-(3-Fluoro-2-methylphenyl)pyridin-3-yl)quinazolin-4-amine] as the compound, how does the IC50 read?
A: 7.82 µM

Q: Cc1ccc(F)c(-c2ncccc2-c2ccc3ncc(C(=O)NCCCN4CCCC4=O)n3c2)c1 [compound 725, 6-(2-(2-Fluoro-5-methylphenyl)pyridin-3-yl)-N-(3-(2-oxopyrrolidin-1-yl)propyl)imidazo[1,2-a]pyridine-3-carboxamide] was tested. Which IC50 did it give?
A: 0.465 µM

Q: For Cc1cc(-c2ncccc2-c2ccc3ncc(C(=O)Nc4cccc(S(N)(=O)=O)c4)n3c2)ccc1F [compound 616, 6-(2-(4-Fluoro-3-methylphenyl)pyridin-3-yl)-N-(3-sulfamoylphenyl)imidazo[1,2-a]pyridine-3-carboxamide], which IC50 is on record?
A: 2.19 µM

Q: For Cc1cc(CNc2cnc(-c3ccc(F)c(C)c3)c(-c3ccc4ncsc4c3)c2)ccc1O [compound 372, 4-(((5-(Benzo[d]thiazol-6-yl)-6-(4-fluoro-3-methylphenyl)pyridin-3-yl)amino)methyl)-2-methylphenol], which IC50 is on record?
A: 0.339 µM

Q: How did the IC50 turn out when Nc1ncnc2ccc(-c3cccnc3-c3cccc(F)c3)cc12 [compound 461, 6-(2-(3-Fluorophenyl)pyridin-3-yl)quinazolin-4-amine] was run?
A: 0.551 µM

Q: With Cc1cc(-c2ncccc2-c2ccc3nccc(N)c3c2)ccc1F [compound 836, 6-(2-(4-Fluoro-3-methylphenyl)pyridin-3-yl)quinolin-4-amine] as the compound, how does the IC50 read?
A: 5.94 µM

Q: Cc1cc(-c2ncccc2-c2ccc3ncc(CN4CCOCC4)n3c2)ccc1F [compound 569, 4-((6-(2-(4-Fluoro-3-methylphenyl)pyridin-3-yl)imidazo[1,2-a]pyridin-3-yl)methyl)morpholine] was tested. Which IC50 did it give?
A: 5.41 µM

Q: For Cc1cc(F)ccc1-c1ncccc1-c1ccc2ncnc(N)c2c1 [compound 467, 6-(2-(4-Fluoro-2-methylphenyl)pyridin-3-yl)quinazolin-4-amine], which IC50 is on record?
A: 12.2 µM

Q: With Cc1cccc(-c2ncccc2-c2ccc3nncn3c2)c1 [Compound 162, 6-(2-m-Tolylpyridin-3-yl)-[1,2,4]triazolo[4,3-a]pyridine] as the compound, how does the IC50 read?
A: 5.66 µM

Q: How did the IC50 turn out when Fc1ccc(-c2ncccc2-c2ccc3ncc(-c4cc[nH]n4)n3c2)cc1Cl [compound 852, 6-(2-(3-Chloro-4-fluorophenyl)pyridin-3-yl)-3-(1H-pyrazol-3-yl)imidazo[1,2-a]pyridine] was run?
A: 0.207 µM
